The results in this text go back to ChEMBL document CHEMBL5653603 (J Am Chem Soc, 2010).

Data set [1] has as its system Primary cortical neuron. The experiment in a line: Inhibition of HDAC6 in Sprague-Dawley rat primary cortical neurons assessed as induction of alpha-tubulin hyperacetylation at 2.5 uM measured after 30 mins by Western blot analysis. The format is cell-based.
Data set [2] deals with T1, Protein deacetylase HDAC6 (Homo sapiens, UniProt Q9UBN7).
T1 sequence (Q9UBN7 whole entry): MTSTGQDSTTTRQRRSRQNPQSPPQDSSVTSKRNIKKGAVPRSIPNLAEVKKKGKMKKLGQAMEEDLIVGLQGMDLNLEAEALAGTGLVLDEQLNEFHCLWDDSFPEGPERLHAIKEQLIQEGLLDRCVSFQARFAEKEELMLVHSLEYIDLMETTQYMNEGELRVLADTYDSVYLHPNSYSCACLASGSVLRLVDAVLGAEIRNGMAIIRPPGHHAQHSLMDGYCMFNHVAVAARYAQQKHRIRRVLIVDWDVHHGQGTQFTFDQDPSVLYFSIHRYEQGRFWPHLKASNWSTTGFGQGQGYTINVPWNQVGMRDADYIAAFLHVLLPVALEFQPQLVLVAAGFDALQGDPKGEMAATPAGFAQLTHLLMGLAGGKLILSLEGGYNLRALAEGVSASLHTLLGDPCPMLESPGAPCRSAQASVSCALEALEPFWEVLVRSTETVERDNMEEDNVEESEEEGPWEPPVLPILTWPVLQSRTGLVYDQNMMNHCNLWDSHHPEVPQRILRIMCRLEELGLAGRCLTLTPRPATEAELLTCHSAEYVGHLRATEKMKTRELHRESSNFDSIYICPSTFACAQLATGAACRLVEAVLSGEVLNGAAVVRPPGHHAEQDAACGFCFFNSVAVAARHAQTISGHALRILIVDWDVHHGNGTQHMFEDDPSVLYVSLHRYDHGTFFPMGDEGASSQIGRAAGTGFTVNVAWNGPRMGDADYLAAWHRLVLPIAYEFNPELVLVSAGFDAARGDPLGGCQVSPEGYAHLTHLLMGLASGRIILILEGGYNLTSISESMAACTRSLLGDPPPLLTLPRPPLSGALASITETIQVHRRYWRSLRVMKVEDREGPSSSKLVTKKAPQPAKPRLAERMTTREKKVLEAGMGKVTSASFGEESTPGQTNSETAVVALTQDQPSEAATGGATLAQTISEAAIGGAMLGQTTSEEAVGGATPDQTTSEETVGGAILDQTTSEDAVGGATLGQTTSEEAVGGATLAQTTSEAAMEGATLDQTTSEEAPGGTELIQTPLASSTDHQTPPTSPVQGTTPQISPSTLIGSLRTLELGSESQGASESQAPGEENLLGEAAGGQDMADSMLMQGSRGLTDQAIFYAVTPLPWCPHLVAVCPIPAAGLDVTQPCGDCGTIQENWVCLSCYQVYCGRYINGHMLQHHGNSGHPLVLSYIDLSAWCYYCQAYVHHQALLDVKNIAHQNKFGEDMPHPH
The experiment in a line: Inhibition of recombinant human HDAC6 using fluorogenic RHKKAc peptide as substrate by fluorescence assay.

Data set [3] addresses Histone deacetylase 1 (Homo sapiens, UniProt Q13547). The experiment in a line: Inhibition of recombinant human HDAC1 using fluorogenic RHKKAc peptide as substrate by fluorescence assay. In kind it is single protein.
The species entered for data set [4] is Homo sapiens. The experiment in a line: Selectivity ratio of IC50 for recombinant human HDAC1 to IC50 for recombinant human HDAC6.
The nature of data set [5]: Neurotoxicity against Sprague-Dawley rat primary cortical neurons assessed as reduction in neuron survival at 1 to 10 uM measured after 24 hrs by MTT assay. The format is toxicity, cell-based. To be noted: cortical neurone, dose 1-10 µM.
Data set [6] relates to Cortical neurone. The experiment in a line: Neuroprotective activity against HCA-induced Sprague-Dawley rat primary cortical neuron death assessed as increase in neuron survival at 0.5 uM measured after 24 hrs by MTT assay. In kind it is functional, cell-based.
A short description of data set [7]: Inhibition of class 1 HDAC in Sprague-Dawley rat primary cortical neurons assessed as induction of histone hyperacetylation at 10 uM measured after 30 mins by Western blot analysis. In kind it is cell-based. To be noted: primary cortical neuron, 0.5 h. (In general: In western blotting, separated proteins are transferred to a membrane and probed.)
For data set [8], the system named is Cortical neurone. The experiment in a line: Neuroprotective activity against HCA-induced Sprague-Dawley rat primary cortical neuron death assessed as increase in neuron survival measured after 24 hrs by MTT assay. To be noted: dose 1-10 µM. In kind it is functional, cell-based. In general terms: Formazan colour is commonly taken as a measure of viable cells.

Calls of active or inactive are those of the source. No cut-off for these calls is given here. Where only a bound is given, the exact number is not on record here.

Sequence of Histone deacetylase 1 (Q13547 whole entry): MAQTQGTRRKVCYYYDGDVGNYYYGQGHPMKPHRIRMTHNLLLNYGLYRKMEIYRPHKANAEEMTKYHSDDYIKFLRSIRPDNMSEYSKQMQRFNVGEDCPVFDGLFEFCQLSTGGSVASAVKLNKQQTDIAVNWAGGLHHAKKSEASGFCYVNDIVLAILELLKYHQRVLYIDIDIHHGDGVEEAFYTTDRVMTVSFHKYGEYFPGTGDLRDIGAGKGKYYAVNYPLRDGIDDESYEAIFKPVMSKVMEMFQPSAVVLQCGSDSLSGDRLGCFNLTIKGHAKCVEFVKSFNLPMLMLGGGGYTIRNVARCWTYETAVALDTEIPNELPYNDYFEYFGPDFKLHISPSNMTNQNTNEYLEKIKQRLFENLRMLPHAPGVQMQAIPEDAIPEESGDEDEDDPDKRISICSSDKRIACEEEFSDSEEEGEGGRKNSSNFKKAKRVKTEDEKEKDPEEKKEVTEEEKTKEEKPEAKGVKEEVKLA

Consider `O=C(CCCCCCC(=O)Nc1ccc([C@H]2O[C@@H](CSc3nc(-c4ccccc4)c(-c4ccccc4)o3)C[C@@H](c3ccc(CO)cc3)O2)cc1)NO`, for which, in data set [1], the inhibition result was “Active”.
For orientation: IC50 means the point on the concentration scale where inhibition reaches its midpoint. On to `CN1CCc2c(n(Cc3ccc(C(=O)NO)cc3)c3ccccc23)C1`, for which the concentration for half-maximal inhibition (IC50) was determined as 0.001 µM in data set [2] and 5.18 µM in data set [3]. Further, the Ratio IC50 in data set [4] was determined as 3700.
For `CN1CCc2c(n(CCCCCC(=O)NO)c3ccccc23)C1`, the 50% inhibitory concentration (IC50) is 0.55 µM in data set [2] and above 30 µM in data set [3].
For `O=C(NO)c1ccc(CCn2c3ccccc3c3ccccc32)cc1` the same measures were 0.18 µM and above 30 µM.
Take `CC(/C=C/C(=O)NO)=C\[C@@H](C)C(=O)c1ccc(N(C)C)cc1` [TRICHOSTATIN]: the Activity result in data set [5] is listed as “Toxic”. Also, the outcome in data set [6] was Active.
For the compound `O=C(NO)n1c2ccccc2c2ccccc21`, the IC50 in data set [2] and in data set [3] was above 30 µM throughout.
Consider `O=C(CCn1c2ccccc2c2ccccc21)NO`, for which, in data set [3], the 50% inhibitory concentration (IC50) was above 30 µM.
For `O=C(Cc1ccc(Cn2c3ccccc3c3ccccc32)cc1)NO`, the IC50 in data set [2] was 0.301 µM; in data set [3], above 30 µM.
Consider `O=C(CCCCCn1c2c(c3ccccc31)CCCC2)NO`, for which the IC50 is 0.09 µM in data set [2] and 8.6 µM in data set [3].
With `O=C(CCCCCn1c2ccccc2c2ccccc21)NO`, the concentration for half-maximal inhibition (IC50) in data set [2] is 0.062 µM; in data set [3] it was 14 µM. For the same compound, the Ratio IC50 in data set [4] came to 226.
With `CN1CCc2c(c3ccccc3n2Cc2ccc(C(=O)NO)cc2)C1.O=C(O)C(F)(F)F`, the Activity entry in data set [5] was “Non-Toxic”; in data set [8], “Dose-Dependent Effect”. Besides, the inhibition entry in data set [1] is “Active”. In addition, in data set [7], the “inhibition (INH)” value is on record as “Active”.
`O=C(NO)c1ccc(Cn2c3ccccc3c3ccccc32)cc1`: the IC50 in data set [3] is 10.9 µM. The Ratio IC50 in data set [4] turned out to be 574.
As for `CN1CCc2c(c3ccccc3n2CCCCCC(=O)NO)C1`, the IC50 in data set [2] worked out at 0.213 µM; in data set [3], 25.2 µM.
